Source: publication PMC6120739 (ACS Omega, 2018)
“Also recorded” adds a separate entry of the source.

These compounds were tested against PARP-1 (Homo sapiens, UniProt P09874) (assay: PARP-1 radioligand binding). Conditions: PARP-1 IC50, OVCAR8 cells, [125I]KX1 radioligand, ± SEM, n = 3.
Sequence of PARP-1 (P09874 whole entry): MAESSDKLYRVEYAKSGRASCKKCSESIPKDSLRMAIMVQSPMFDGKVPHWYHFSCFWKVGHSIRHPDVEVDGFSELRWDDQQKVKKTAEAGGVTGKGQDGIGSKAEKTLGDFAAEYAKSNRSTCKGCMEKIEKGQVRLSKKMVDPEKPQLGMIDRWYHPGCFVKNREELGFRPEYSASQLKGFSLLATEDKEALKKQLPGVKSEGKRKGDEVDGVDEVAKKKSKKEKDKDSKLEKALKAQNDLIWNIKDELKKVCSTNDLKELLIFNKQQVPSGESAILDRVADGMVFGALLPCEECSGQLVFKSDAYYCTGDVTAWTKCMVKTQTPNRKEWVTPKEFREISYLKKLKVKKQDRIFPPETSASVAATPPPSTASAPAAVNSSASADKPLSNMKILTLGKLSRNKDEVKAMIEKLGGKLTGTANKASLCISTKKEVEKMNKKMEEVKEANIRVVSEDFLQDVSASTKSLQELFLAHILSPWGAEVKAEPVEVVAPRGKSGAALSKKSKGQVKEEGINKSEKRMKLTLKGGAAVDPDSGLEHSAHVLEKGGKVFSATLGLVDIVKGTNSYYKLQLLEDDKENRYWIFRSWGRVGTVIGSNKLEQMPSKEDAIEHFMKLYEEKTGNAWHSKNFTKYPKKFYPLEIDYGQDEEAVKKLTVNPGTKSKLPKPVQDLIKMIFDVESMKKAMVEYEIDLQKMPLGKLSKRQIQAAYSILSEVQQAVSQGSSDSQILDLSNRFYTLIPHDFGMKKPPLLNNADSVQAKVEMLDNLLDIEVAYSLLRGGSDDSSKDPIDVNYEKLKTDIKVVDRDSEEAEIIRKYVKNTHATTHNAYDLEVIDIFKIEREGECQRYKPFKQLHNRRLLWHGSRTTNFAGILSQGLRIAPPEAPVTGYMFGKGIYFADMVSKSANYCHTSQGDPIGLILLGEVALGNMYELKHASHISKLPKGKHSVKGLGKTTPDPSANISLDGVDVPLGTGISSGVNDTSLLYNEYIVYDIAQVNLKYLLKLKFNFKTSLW
In the case of `COC1CN(C(=O)c2cc(Cc3n[nH]c(=O)c4ccccc34)ccc2F)C1` [Compound 2], the IC50 is reported as < 10 nM.
For `COC1CCN(C(=O)c2cc(Cc3n[nH]c(=O)c4ccccc34)ccc2F)C1` (stereo not drawn) [Compound 3], the IC50 was < 10 nM.
In the case of `COC1CCCN(C(=O)c2cc(Cc3n[nH]c(=O)c4ccccc34)ccc2F)CC1` (stereo not drawn) [Compound 5], the IC50 is reported as < 10 nM.
For `CO[C@H]1C[C@H](NC(=O)c2cc(Cc3n[nH]c(=O)c4ccccc34)ccc2F)C1` [Compound 7], the IC50 was 20.8 ± 1.1 nM.
`CO[C@H]1C[C@@H](NC(=O)c2cc(Cc3n[nH]c(=O)c4ccccc34)ccc2F)C1` [Compound 8] gave an IC50 of 107 ± 1.1 nM.
`COC1CCC(NC(=O)c2cc(Cc3n[nH]c(=O)c4ccccc34)ccc2F)C1` (stereo not drawn) [Compound 9] was tested, and the IC50 was 49.5 ± 1.1 nM.
`COC1CCC(NC(=O)c2cc(Cc3n[nH]c(=O)c4ccccc34)ccc2F)CC1` (stereo not drawn) [Compound 10] was tested, and the IC50 was 226.3 ± 1.1 nM.

Each compound was assayed against recombinant human P-gp (Homo sapiens, UniProt P08183) (assay: Pgp-Glo assay). Conditions: 20 µM compound, 1 hr at 37°C, normalized to Na3VO4.
Sequence of recombinant human P-gp (P08183 whole entry): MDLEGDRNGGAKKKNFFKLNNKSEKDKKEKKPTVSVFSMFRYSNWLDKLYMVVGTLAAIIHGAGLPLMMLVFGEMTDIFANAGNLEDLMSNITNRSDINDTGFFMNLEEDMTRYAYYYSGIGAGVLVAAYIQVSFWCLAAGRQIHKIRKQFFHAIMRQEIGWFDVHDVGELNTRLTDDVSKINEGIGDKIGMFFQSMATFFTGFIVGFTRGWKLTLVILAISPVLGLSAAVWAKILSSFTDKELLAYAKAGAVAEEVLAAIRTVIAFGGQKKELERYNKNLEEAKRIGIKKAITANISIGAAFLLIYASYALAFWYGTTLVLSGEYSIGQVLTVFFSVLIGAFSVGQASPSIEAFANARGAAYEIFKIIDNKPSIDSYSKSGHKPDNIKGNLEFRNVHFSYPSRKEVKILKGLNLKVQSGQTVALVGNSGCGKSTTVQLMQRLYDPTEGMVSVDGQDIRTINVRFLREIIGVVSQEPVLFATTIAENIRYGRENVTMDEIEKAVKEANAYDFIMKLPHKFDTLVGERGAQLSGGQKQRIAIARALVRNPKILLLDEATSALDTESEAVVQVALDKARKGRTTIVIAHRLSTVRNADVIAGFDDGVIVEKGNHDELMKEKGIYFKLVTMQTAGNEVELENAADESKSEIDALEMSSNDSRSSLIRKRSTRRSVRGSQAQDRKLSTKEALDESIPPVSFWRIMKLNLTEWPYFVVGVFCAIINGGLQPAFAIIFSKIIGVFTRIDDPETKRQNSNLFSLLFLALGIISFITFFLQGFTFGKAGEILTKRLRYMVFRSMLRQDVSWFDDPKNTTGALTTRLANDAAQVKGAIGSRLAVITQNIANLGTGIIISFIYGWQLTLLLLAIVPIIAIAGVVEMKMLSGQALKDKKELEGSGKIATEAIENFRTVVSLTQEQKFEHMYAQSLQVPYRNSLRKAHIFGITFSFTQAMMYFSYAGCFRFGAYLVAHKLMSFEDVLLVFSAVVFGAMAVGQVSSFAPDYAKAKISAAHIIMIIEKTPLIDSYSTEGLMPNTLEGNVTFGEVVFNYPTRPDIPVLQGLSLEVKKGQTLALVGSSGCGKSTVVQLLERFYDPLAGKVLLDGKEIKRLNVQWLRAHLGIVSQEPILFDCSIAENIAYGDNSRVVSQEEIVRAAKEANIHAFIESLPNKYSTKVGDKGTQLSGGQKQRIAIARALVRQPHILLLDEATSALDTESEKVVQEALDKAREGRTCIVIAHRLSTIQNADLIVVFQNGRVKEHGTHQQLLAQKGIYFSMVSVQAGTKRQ
For `COC1CN(C(=O)c2cc(Cc3n[nH]c(=O)c4ccccc34)ccc2F)C1` [Compound 2], the “P-gp ATPase interaction (luminescence), result in words” value (from here on “P-gp ATPase interaction (luminescence)”) was “increase in luminescence”.
With `COC1CCN(C(=O)c2cc(Cc3n[nH]c(=O)c4ccccc34)ccc2F)C1` (stereo not drawn) [Compound 3] the “P-gp ATPase interaction (luminescence)” value was “increase in luminescence; also recorded: weakest activators of P-gp ATPase; also recorded: least activating agents of P-gp ATPase”.
In the case of `COC1CCCN(C(=O)c2cc(Cc3n[nH]c(=O)c4ccccc34)ccc2F)CC1` (stereo not drawn) [Compound 5], the “P-gp ATPase interaction (luminescence)” value is reported as “increase in luminescence; also recorded: weakest activators of P-gp ATPase”.
In the case of `COC1CC(NC(=O)c2cc(Cc3n[nH]c(=O)c4ccccc34)ccc2F)C1` (stereo not drawn) [Compound 6], the “P-gp ATPase interaction (luminescence)” value is reported as “only P-gp substrate in this study”.
`COC1CCC(NC(=O)c2cc(Cc3n[nH]c(=O)c4ccccc34)ccc2F)C1` (stereo not drawn) [Compound 9] was tested, and the “P-gp ATPase interaction (luminescence)” value was “poor activator of P-pg ATPase; also recorded: least activating agents of P-gp ATPase”.
In the case of `O=C(c1cc(Cc2n[nH]c(=O)c3ccccc23)ccc1F)N1CCN(C(=O)C2CC2)CC1` [olaparib, reference compound], the “P-gp ATPase interaction (luminescence)” value is reported as “acts more of a P-gp ATPase activator, than 4”.

These compounds were tested on UWB1.289 + BRCA1 cells (assay: Cell viability assay). Conditions: UWB1289, read-out: UWB1.289 + BRCA1 EC50.
Format: cell-based
For `COC1CN(C(=O)c2cc(Cc3n[nH]c(=O)c4ccccc34)ccc2F)C1` [Compound 2], the EC50 was 13400 ± 700 nM.
Compound `COC1CCN(C(=O)c2cc(Cc3n[nH]c(=O)c4ccccc34)ccc2F)C1` (stereo not drawn) [Compound 3] has an EC50 of 8580 ± 1100 nM.
`COC1CCN(C(=O)c2cc(Cc3n[nH]c(=O)c4ccccc34)ccc2F)CC1` [Compound 4, AZD2461, reference compound] was tested, and the EC50 was 2280 ± 300 nM.
`COC1CCCN(C(=O)c2cc(Cc3n[nH]c(=O)c4ccccc34)ccc2F)CC1` (stereo not drawn) [Compound 5] was tested, and the EC50 was 3490 ± 200 nM.
Work on `COC1CC(NC(=O)c2cc(Cc3n[nH]c(=O)c4ccccc34)ccc2F)C1` (stereo not drawn) [Compound 6] yielded an EC50 of 6620 ± 4300 nM.
`CO[C@H]1C[C@H](NC(=O)c2cc(Cc3n[nH]c(=O)c4ccccc34)ccc2F)C1` [Compound 7] gave an EC50 of 2810 ± 1400 nM.
Work on `CO[C@H]1C[C@@H](NC(=O)c2cc(Cc3n[nH]c(=O)c4ccccc34)ccc2F)C1` [Compound 8] yielded an EC50 of 13900 ± 1100 nM.
`COC1CCC(NC(=O)c2cc(Cc3n[nH]c(=O)c4ccccc34)ccc2F)C1` (stereo not drawn) [Compound 9] showed an EC50 of 9310 ± 1000 nM.
`COC1CCC(NC(=O)c2cc(Cc3n[nH]c(=O)c4ccccc34)ccc2F)CC1` (stereo not drawn) [Compound 10] was tested, and the EC50 was 6160 ± 1300 nM.
Compound `O=C(c1cc(Cc2n[nH]c(=O)c3ccccc23)ccc1F)N1CCN(C(=O)C2CC2)CC1` [olaparib, reference compound] has an EC50 of 1970 ± 400 nM.

Same assay, conditions: in contrast to olaparib and AZD2461
In the case of `COC1CN(C(=O)c2cc(Cc3n[nH]c(=O)c4ccccc34)ccc2F)C1` [Compound 2], the “antiproliferative effect in BRCA1-restored UWB1.289, result in words” value (shortened to “antiproliferative effect”) is reported as “poor antiproliferative effects”.
With `COC1CCN(C(=O)c2cc(Cc3n[nH]c(=O)c4ccccc34)ccc2F)C1` (stereo not drawn) [Compound 3] the “antiproliferative effect” value was “poor antiproliferative effects”.
For `COC1CCCN(C(=O)c2cc(Cc3n[nH]c(=O)c4ccccc34)ccc2F)CC1` (stereo not drawn) [Compound 5], the “antiproliferative effect” value was “poor antiproliferative effects”.

What follows are compounds tested on UWB1.289 cells (assay: Cell viability assay). Conditions: UWB1289, read-out: UWB1.289 EC50.
`COC1CN(C(=O)c2cc(Cc3n[nH]c(=O)c4ccccc34)ccc2F)C1` [Compound 2] showed an EC50 of 2120 ± 200 nM.
With `COC1CCN(C(=O)c2cc(Cc3n[nH]c(=O)c4ccccc34)ccc2F)C1` (stereo not drawn) [Compound 3] the EC50 was 1500 ± 400 nM.
For `COC1CCN(C(=O)c2cc(Cc3n[nH]c(=O)c4ccccc34)ccc2F)CC1` [Compound 4, AZD2461, reference compound], the EC50 was 890 ± 700 nM.
In the case of `COC1CCCN(C(=O)c2cc(Cc3n[nH]c(=O)c4ccccc34)ccc2F)CC1` (stereo not drawn) [Compound 5], the EC50 is reported as 2840 ± 1400 nM.
`COC1CC(NC(=O)c2cc(Cc3n[nH]c(=O)c4ccccc34)ccc2F)C1` (stereo not drawn) [Compound 6] gave an EC50 of 10100 ± 1500 nM.
Work on `CO[C@H]1C[C@H](NC(=O)c2cc(Cc3n[nH]c(=O)c4ccccc34)ccc2F)C1` [Compound 7] yielded an EC50 of 1940 ± 1100 nM.
`CO[C@H]1C[C@@H](NC(=O)c2cc(Cc3n[nH]c(=O)c4ccccc34)ccc2F)C1` [Compound 8] gave an EC50 of 4350 ± 1700 nM.
`COC1CCC(NC(=O)c2cc(Cc3n[nH]c(=O)c4ccccc34)ccc2F)C1` (stereo not drawn) [Compound 9] gave an EC50 of 1320 ± 500 nM.
Compound `COC1CCC(NC(=O)c2cc(Cc3n[nH]c(=O)c4ccccc34)ccc2F)CC1` (stereo not drawn) [Compound 10] has an EC50 of 2420 ± 900 nM.
For `O=C(c1cc(Cc2n[nH]c(=O)c3ccccc23)ccc1F)N1CCN(C(=O)C2CC2)CC1` [olaparib, reference compound], the EC50 was 900 ± 500 nM.

Same assay, conditions: compared with AZD2461 and olaparib
With `COC1CN(C(=O)c2cc(Cc3n[nH]c(=O)c4ccccc34)ccc2F)C1` [Compound 2] the “cytotoxicity in BRCA1-null model, result in words” value (from here on “cytotoxicity in BRCA1-null model”) was “less cytotoxic than both AZD2461 and olaparib”.
In the case of `COC1CCN(C(=O)c2cc(Cc3n[nH]c(=O)c4ccccc34)ccc2F)C1` (stereo not drawn) [Compound 3], the “cytotoxicity in BRCA1-null model” value is reported as “less cytotoxic than both AZD2461 and olaparib”.
For `COC1CCCN(C(=O)c2cc(Cc3n[nH]c(=O)c4ccccc34)ccc2F)CC1` (stereo not drawn) [Compound 5], the “cytotoxicity in BRCA1-null model” value was “less cytotoxic than both AZD2461 and olaparib”.
